Assays:
[1] = system: MS01 cells (mouse MD-SC); experiment: Cell viability (CellTiter-Fluor) and Combenefit synergy, 10x10 matrix; format: cell-based; details: MS01 48h, read-out: % Control cell viability
Description: (§1) Drugs used in this study are listed with their targets in Table S1. All drugs were obtained from SelleckChem (Houston, TX, USA), apart from (−)-B-Hydrastine (Santa Cruz Biotechnology, Dallas, TX, USA). Drugs were dissolved in DMSO (10 mM stock). MD-SCs were seeded in 384-well CellBind Corning plates at 1000 cells/well in phenol red-free media. After attachment, cells were treated with drugs at 10 concentrations in a 10×10 matrix. Mouse cells were treated for 48h and human cells for 72h prior to assessment of cell viability with CellTiter-Fluor Assay (Promega, Madison, WI, USA). All drugs were tested in at least two human MD-SC lines. Follow up testing was performed on a subset of combinations using the mouse MD-SC line. Matrix combination data was uploaded into the Combenefit software system to assess drug synergy using three methods (Loewe, Bliss, and HSA)([18]).

[2] = system: HS03 cells (human MD-SC); experiment: as above; format: cell-based; details: HS03 72h, read-out: % Control cell viability
Description: as §1

[3] = system: HS01 cells (human MD-SC); experiment: as above; format: cell-based; details: HS01 72h, read-out: % Control cell viability
Description: as §1

[4] = system: human MD-SCs (HS02, HS05); details: human MD-SC lines, Incucyte
Description: Human HS11, HS01, HS02, HS13 and HS05 and mouse MTC-10 cells (1,000 cells/well) were seeded in growth medium in three replicate wells/condition of a 384-well CellBIND Corning plate. […] Wells were imaged using the Incucyte® S5 Live-Cell Analysis system (Sartorius) for 24–72h. Phase and green fluorescent images were collected every 2h and analyzed using the integrated basic analyzer software.

[5] = system: mouse MD-SCs (MS01); experiment: Incucyte confluency and CC-3/7 assay; format: cell-based
[6] = system: MS01 cells; experiment: Proteome Profiler Mouse Apoptosis Array; format: cell-based; details: MS01, pictilisib 2.5 μM 6h vs vehicle
Description: (§2) Human HS02 MD-SCs and mouse MTC-10 (MS01) MD-SCs cell lines were used. […] Cells were lysed and procedure was performed according to the Proteome Profiler Human or Mouse Apoptosis Array Kit (Cat No: ARY009 for Human, Cat No: ARY031 for Mouse, Biotechne, Minneapolis, MA, USA). Arrays were visualized using the Jess System (Biotechne), densitometry was measured and normalized to reference spots using ImageJ Software (NIH, Bethesda, MD, USA). Calculations were carried out using Prism 9 Software (GraphPad, Boston, MA, USA).

[7] = system: HS02 cells; experiment: Proteome Profiler Human Apoptosis Array; format: cell-based; details: HS02, pictilisib 2.5 μM 6h vs vehicle
Description: as §2

[8] = system: patients with advanced solid tumors; details: pictilisib combined with the MEK inhibitor cobimetinib; cited from earlier work
[9] = Pharmacokinetic study, plasma and sciatic nerve after single oral gavage; format: in vivo, NSG mice
Description: The UCF animal facility is accredited by the Association for Assessment and Accreditation of Laboratory Animal Care. A total of 50 six- to eight-week-old mice were used for pharmacokinetic studies. […] Drugs were delivered via 0.5% methylcellulose, 0.2% Tween 80, 10% DMSO vehicle. Ten mice (three per drug and one control receiving vehicle alone) were used at each time point. Collected samples were frozen and sent to Cyprotex (Watertown, MA, USA) for LC-MS/MS quantitation of drug levels. Pharmacokinetic calculations were performed using the PKSolver software. The plasma half-life (t½) was calculated as the time required to reduce by half the plasma concentration after reaching pseudo-equilibrium and is not the time required to eliminate half the administered dose. An additional LC-MS/MS analyses of a subset of the treated mice (see below) was conducted. […] Three mice from each treatment group were selected randomly at the end of the in vivo study to assess the levels of drug in plasma, intact control nerve, and tumor. Samples were collected 4h after the final oral gavage, frozen, and sent to Cyprotex for analysis.

[10] = system: glioblastoma xenografts; set-up: method as in PMID 19584227; details: cited from earlier work
[11] = system: estrogen receptor positive breast cancer patients; details: addition of pictilisib to fulvestrant; cited from earlier work
[12] = system: patients with advanced solid tumors; details: phase 1, advanced solid tumors; cited from earlier work
[13] = system: ovarian cancer xenografts; set-up: method as in PMID 19584227; details: cited from earlier work
[14] = system: luminal B breast cancer; details: adding pictilisib to anastrozole; cited from earlier work

SMILES: CS(=O)(=O)N1CCN(Cc2cc3nc(-c4cccc5[nH]ncc45)nc(N4CCOCC4)c3s2)CC1 [Pictilisib]
- viability at 0.03906 µM ([1]; single drug 39.06 nM): 81%
- viability at 0.07813 µM ([1]; single drug 78.13 nM): 78%
- viability at 0.15625 µM ([1]; single drug 156.25 nM): 70%
- viability at 0.3125 µM ([1]; single drug 312.5 nM): 65%
- viability at 0.625 µM ([1]; single drug 625 nM): 65%
- viability at 1.25 µM ([1]; single drug 1250 nM): 54%
- viability at 2.5 µM ([1]; single drug 2500 nM): 53%
- viability at 5 µM ([1]; single drug 5000 nM): 50%
- viability at 10 µM ([1]; single drug 10000 nM): 55%
- viability at 0.03906 µM ([2]; single drug 39.06 nM): 93%
- viability at 0.07813 µM ([2]; single drug 78.13 nM): 97%
- viability at 0.15625 µM ([2]; single drug 156.25 nM): 94%
- viability at 0.3125 µM ([2]; single drug 312.5 nM): 89%
- viability at 0.625 µM ([2]; single drug 625 nM): 86%
- viability at 1.25 µM ([2]; single drug 1250 nM): 79%
- viability at 2.5 µM ([2]; single drug 2500 nM): 68%
- viability at 5 µM ([2]; single drug 5000 nM): 72%
- viability at 10 µM ([2]; single drug 10000 nM): 77%
- viability at 0.03906 µM ([3]; single drug 39.06 nM): 88%
- viability at 0.07813 µM ([3]; single drug 78.13 nM): 85%
- viability at 0.15625 µM ([3]; single drug 156.25 nM): 78%
- viability at 0.3125 µM ([3]; single drug 312.5 nM): 72%
- viability at 0.625 µM ([3]; single drug 625 nM): 72%
- viability at 1.25 µM ([3]; single drug 1250 nM): 66%
- viability at 2.5 µM ([3]; single drug 2500 nM): 66%
- viability at 5 µM ([3]; single drug 5000 nM): 64%
- viability at 10 µM ([3]; single drug 10000 nM): 65%
- confluency [4]: significantly reduced confluency
- CC-3/7 signal [5]: high CC-3/7 signal
- confluency [5]: low confluency
- CC-3 protein level [6]: significant increase
- anti-apoptotic proteins Bcl-2, Bcl-x and XIAP [6]: significant decrease
- CC-3, Bcl-2 and Bcl-x protein levels [7]: no difference
- XIAP protein level [7]: significant increase
- tolerability and efficacy [8]: limited tolerability and efficacy
- Tmax ([9]; both sexes, NOD.Cg-Prkdcscid Il2rgtm1Wjl/SzJ (NSG), mouse, plasma, po, read-out: time of maximum plasma concentration): 1 h
- penetration of blood-nerve barrier / detection in intact nerve ([9]; single agent, single oral gavage): penetrated the normal blood-nerve barrier
- time of maximum nerve concentration ([9]; single agent, single oral gavage 75 mg/kg): 1 h
- growth inhibition [10]: 98%
- dose-limiting toxicity [11]: limited by toxicity
- progression-free survival [11]: did not significantly improve progression-free survival
- tolerability [12]: well tolerated
- growth inhibition [13]: 80%
- suppression of tumor cell proliferation [14]: significantly increased suppression of tumor cell proliferation

Reference: paper PMC10602174, “Simultaneous Inhibition of PI3K and PAK in Preclinical Models of Neurofibromatosis Type 2-related Schwannomatosis” (Research Square, 2023)
